The source of these data is PMC3669624 (Molecular Cancer, 2013).

The test system of one data set is 5637. Description: Cell anti-proliferative effect (MTT test). The class given is cell-based. The note with it: Homo sapiens, 48 h, read-out: EC50 antiproliferative effect. As for the experimental part: (§1) UMUC-3, 5637, TCC sup cells and J82 (ATCC, Manassas, VA, USA), derived from human transitional cell carcinoma of the bladder, were routinely cultured in MEM supplemented with 10% fetal bovine serum, 2 mM glutamine, 100 U/mL penicillin, 100 μg/mL streptomycin, 1X NEAA and 1 mM sodium pyruvate. All components were purchased form Invitrogen Corportion (Cergy Pontoise, France), in a humidified incubator at 37°C with a 5% CO2 atmosphere. Caco-2 (IRCCS “S. De Bellis”, Castellana Grotte, Italy), MDCK-MDR1, MDCK-MRP1 (gift of Prof. P. Borst, NKI-AVL Institute, Amsterdam, Netherlands) and MDCK-BCRP cells (gift of Dr. A. Schinkel, NKI-AVL Institute, Amsterdam, Netherlands) were grown in DMEM medium with 10% heat-inactivated fetal calf serum, 100 U/mL penicillin, 100 μg/mL streptomycin and 2 mM L-glutamine (Invitrogen) in a humidified incubator at 37°C with a 5% CO2 atmosphere. The cells were trypsinized twice a week with trypsin/ethylenediaminetetraacetic acid (EDTA) (0.05%/0.02%) and the medium was changed twice a week.
(§2) Afterwords, 10 μl of 3-[4,5-dimethylthiazol-2-yl]-2,5-diphenyltetrazoliumbromide (MTT) freshly prepared solution (5 mg/ml in PBS) (Sigma) was added in each well, and the plate was incubated in a humidified atmosphere 5% CO2 at 37° for 3–4 h. MTT solution was removed and 200 μL of EtOH/DMSO (1:1) was added to each well to dissolve the blue formazan solid crystals. The optical density was measured at 570 nm and 650 nm wavelenghts using Victor3 (PerkinElmer, Waltham, MA, USA). The results are expressed as EC50 values, obtained from non-linear iterative curve fitting by Prism v.3.0, GraphPad software (GraphPad Software, Inc. San Diego, USA).
On the technique in general: Formazan colour is commonly taken as a measure of viable cells.

The test system of another data set is UMUC3. Description: Cell anti-proliferative effect (MTT test). The data set is classed as cell-based. The note with it: Homo sapiens, read-out: EC50 antiproliferative effect. As for the experimental part: as §1, §2
For the next data set, the system named is TCC sup. Briefly: Cell anti-proliferative effect (MTT test). The class given is cell-based. The note with it: Homo sapiens, 48 h, read-out: EC50 antiproliferative effect. As for the experimental part:
as §1, §2

A further data set has as its system J82. Briefly: Cell anti-proliferative effect (MTT test). The class given is cell-based. The note with it: Homo sapiens, read-out: EC50 antiproliferative effect. As for the experimental part: as §1, §2
In a further data set the test system is UMUC-3- CX. Description: Cell anti-proliferative effect (MTT test). The class given is cell-based, human. The note with it: for EC50: Homo sapiens, read-out: EC50 antiproliferative effect. The procedure:
as §1
The pSG5-COX-2 plasmid, which contains a full-length human COX-2 cDNA in the pSG expression vector [23], was used for COX-2 transfection. The plasmid DNA was introduced into UMUC-3 cells using Lipofectamine LTX (Invitrogen). Briefly, 2.5 μg of plasmid DNA and 6.25 μl of Lipofectamine LTX were combined in 500 μl of OpTI-MEM*I reduced serum medium (Invitrogen) and allowed to stand at room temperature for 30 minutes. UMUC-3 cells were plated at 1X105 cells/well in six-well plates. After overnight attachment, the Lipofectamine mixture was applied to cells. After 5 hours of transfection, the medium was removed and complete medium was added. After 48 hours, geneticin G418 (Invitrogen) was added to cells at a concentration of […]. Cell lines were obtained from individual colonies using cloning cylinders. UMUC-3-CX overexpressing cells were obtained and were continuously cultured in complete medium with the addition of 800 μg/ml G418.
as §2

The next data set deals with 5637 si-CX. Description: Cell anti-proliferative effect (MTT test). The class given is cell-based. The note with it: Homo sapiens, 48 h, read-out: EC50 antiproliferative effect. The procedure: UMUC-3, 5637, TCC sup cells and J82 (ATCC, Manassas, VA, USA), derived from human transitional cell carcinoma of the bladder, were routinely cultured in MEM supplemented with 10% fetal bovine serum, 2 mM glutamine, 100 U/mL penicillin, 100 μg/mL streptomycin, 1X NEAA and 1 mM sodium pyruvate. All components were purchased form Invitrogen Corportion (Cergy Pontoise, France), in a humidified incubator at 37°C with a 5% CO2 atmosphere. Caco-2 (IRCCS “S. De Bellis”, Castellana Grotte, Italy), MDCK-MDR1, MDCK-MRP1 (gift of Prof. P. Borst, NKI-AVL Institute, Amsterdam, Netherlands) and MDCK-BCRP cells (gift of Dr. A. Schinkel, NKI-AVL Institute, Amsterdam, Netherlands) were grown in DMEM medium with 10% heat-inactivated fetal calf serum, 100 U/mL penicillin, 100 μg/mL streptomycin and 2 mM L-glutamine (Invitrogen) in a humidified incubator at 37°C with a 5% CO2 atmosphere. […]
Afterwords, 10 μl of 3-[4,5-dimethylthiazol-2-yl]-2,5-diphenyltetrazoliumbromide (MTT) freshly prepared solution (5 mg/ml in PBS) (Sigma) was added in each well, and the plate was incubated in a humidified atmosphere 5% CO2 at 37° for 3–4 h. […] The optical density was measured at 570 nm and 650 nm wavelenghts using Victor3 (PerkinElmer, Waltham, MA, USA). The results are expressed as EC50 values, obtained from non-linear iterative curve fitting by Prism v.3.0, GraphPad software (GraphPad Software, Inc. San Diego, USA).

In another data set the test system is UMUC-3-CX cells. Briefly: Intracellular mitomycin C accumulation (flow cytometry). The class given is cell-based, human. The note with it: 1 day celecoxib then 1 day MMC and celecoxib. As for the experimental part: (§3) After incubation, the cell medium was removed and trypsin/EDTA was used to detach the cells from the plates. Cells were harvested, washed twice in ice-cold PBS (pH 7.4), and placed on ice (<1 hour) until analysis. Analysis was performed using a 530/30 filter (FL1-H [height of fluorescence intensity]). Fluorescence measurements of individual cells were done with a Becton Dickinson FACScan equipped with an […] argon laser. Analysis was gated to include single cells, based on forward and side light scatter, and was based on the acquisition of data from 10,000 cells.
Background: A flow cytometer gives signals particle by particle.

In the next data set the test system is UMUC-3 cells. The data set is described as above. The class given is cell-based, human. The note with it: UMUC-3, 1 day celecoxib then 1 day MMC and celecoxib. The procedure: as §3
Another data set addresses T1, BCRP (Homo sapiens, UniProt Q9UNQ0).
T1 sequence (Q9UNQ0 1-655): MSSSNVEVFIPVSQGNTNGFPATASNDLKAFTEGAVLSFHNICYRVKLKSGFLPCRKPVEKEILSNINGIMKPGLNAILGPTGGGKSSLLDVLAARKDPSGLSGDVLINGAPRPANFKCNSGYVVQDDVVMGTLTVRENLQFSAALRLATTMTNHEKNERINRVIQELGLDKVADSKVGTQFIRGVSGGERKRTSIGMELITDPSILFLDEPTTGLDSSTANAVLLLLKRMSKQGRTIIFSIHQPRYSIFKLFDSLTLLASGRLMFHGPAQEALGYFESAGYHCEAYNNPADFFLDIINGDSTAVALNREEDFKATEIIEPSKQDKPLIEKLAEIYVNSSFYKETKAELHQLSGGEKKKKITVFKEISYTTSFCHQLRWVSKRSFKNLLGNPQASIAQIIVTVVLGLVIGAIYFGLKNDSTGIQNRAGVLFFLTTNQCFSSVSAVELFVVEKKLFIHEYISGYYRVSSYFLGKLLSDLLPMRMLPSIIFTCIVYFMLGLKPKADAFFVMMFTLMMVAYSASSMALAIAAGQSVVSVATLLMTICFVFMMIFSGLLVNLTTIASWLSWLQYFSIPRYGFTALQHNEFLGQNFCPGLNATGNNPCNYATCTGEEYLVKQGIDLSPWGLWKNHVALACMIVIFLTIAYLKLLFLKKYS
Briefly: cell-based.

A further data set relates to Caco-2 cells. Description: Cell ATP availability assay. The data set is classed as cell-based.
A further data set concerns the target P-gp (Homo sapiens, UniProt P08183). Briefly: Drug transport experiment, Caco-2 monolayer apparent permeability. The class given is in vitro ADME. In general terms: Caco-2 monolayers are a common model of the intestinal barrier.
For the next data set, the target named is MRP1 (Homo sapiens, UniProt P33527). Briefly: cell-based.

The structures appear in SMILES notation. Read-outs that look alike come from different tables or passages of the source.

Sequence of P-gp (P08183 whole entry): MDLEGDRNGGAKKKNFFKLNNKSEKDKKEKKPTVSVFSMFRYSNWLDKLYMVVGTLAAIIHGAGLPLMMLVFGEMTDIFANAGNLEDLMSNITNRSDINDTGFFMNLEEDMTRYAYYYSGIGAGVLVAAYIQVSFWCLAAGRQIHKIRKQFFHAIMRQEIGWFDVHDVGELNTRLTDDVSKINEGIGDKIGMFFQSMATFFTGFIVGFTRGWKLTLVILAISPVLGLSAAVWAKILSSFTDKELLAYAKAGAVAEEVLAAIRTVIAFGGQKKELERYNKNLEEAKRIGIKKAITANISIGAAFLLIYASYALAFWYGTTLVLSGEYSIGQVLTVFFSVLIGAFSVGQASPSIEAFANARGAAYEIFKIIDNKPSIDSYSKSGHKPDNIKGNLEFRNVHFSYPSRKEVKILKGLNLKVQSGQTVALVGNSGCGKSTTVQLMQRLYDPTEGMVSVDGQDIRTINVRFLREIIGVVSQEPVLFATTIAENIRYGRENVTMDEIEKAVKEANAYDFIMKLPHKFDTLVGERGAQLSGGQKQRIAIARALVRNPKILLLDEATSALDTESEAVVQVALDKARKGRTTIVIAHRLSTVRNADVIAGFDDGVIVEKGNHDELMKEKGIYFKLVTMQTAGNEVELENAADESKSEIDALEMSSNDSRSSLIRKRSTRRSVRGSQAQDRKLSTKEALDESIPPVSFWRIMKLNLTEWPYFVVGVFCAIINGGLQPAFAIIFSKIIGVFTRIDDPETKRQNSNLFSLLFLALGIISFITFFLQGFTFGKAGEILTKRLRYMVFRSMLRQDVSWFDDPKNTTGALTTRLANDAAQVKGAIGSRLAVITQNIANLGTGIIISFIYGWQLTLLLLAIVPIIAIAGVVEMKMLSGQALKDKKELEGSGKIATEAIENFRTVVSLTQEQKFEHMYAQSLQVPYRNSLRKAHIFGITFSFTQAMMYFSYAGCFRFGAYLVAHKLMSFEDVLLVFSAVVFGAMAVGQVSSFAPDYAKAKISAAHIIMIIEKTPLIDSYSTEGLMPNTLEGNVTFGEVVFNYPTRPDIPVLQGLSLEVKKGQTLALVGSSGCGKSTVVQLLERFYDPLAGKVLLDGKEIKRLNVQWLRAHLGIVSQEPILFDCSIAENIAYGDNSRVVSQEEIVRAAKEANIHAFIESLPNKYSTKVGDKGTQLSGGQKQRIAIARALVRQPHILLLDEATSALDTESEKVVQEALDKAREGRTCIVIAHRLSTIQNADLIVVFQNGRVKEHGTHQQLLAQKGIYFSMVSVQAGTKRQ
Sequence of MRP1 (P33527 whole entry): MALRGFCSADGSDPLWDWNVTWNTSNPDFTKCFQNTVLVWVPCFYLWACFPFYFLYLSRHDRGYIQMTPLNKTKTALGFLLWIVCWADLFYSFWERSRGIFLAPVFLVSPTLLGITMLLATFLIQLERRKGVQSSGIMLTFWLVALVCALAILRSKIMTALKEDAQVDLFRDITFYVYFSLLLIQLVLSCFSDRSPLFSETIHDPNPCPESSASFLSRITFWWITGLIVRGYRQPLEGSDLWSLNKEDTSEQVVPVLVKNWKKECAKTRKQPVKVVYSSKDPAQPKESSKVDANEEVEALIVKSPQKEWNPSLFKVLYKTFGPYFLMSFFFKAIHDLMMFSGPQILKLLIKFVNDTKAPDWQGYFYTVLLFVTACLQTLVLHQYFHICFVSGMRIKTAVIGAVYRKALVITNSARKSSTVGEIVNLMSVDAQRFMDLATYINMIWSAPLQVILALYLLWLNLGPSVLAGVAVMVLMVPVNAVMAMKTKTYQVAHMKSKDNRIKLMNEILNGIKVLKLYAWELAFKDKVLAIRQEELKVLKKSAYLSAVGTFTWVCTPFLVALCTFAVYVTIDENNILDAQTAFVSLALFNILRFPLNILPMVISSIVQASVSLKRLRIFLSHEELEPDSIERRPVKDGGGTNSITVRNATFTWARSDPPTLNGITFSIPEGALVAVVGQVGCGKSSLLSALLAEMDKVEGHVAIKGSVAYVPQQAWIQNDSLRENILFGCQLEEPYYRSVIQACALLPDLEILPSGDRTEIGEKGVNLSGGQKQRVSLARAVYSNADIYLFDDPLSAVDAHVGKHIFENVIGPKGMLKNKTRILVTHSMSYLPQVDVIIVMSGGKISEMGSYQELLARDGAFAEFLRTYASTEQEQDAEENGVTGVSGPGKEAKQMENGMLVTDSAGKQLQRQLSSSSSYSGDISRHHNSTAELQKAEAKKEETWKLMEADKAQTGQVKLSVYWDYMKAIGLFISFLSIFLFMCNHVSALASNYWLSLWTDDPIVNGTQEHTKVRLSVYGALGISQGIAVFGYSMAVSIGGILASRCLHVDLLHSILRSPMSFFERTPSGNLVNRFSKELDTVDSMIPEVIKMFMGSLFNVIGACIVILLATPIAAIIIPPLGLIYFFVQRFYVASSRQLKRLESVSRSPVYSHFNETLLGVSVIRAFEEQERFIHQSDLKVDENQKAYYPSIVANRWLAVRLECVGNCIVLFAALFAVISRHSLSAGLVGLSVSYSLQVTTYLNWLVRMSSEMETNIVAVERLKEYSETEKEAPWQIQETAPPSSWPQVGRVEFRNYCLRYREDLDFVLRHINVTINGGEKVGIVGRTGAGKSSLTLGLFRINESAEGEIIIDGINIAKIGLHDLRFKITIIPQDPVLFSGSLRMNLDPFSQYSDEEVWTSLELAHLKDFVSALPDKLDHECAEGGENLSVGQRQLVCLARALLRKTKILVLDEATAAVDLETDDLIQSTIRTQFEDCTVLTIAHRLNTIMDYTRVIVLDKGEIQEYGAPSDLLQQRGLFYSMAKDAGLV
Description for BCRP: (§4) The method was adapted from Eneroth et al. [27] and Korjamo et al. [28] with minor modifications. Briefly, each cell line was seeded into a black Cultureplate (PerkinElmer) 96/wells plate with 100 μl medium and allowed to become confluent overnight. Test compounds were solubilized in 100 μl of culture medium and added. […] In treated wells the increase of fluorescence as compared to basal level was measured. The half maximal effective concentration (EC50) values were determined by fitting the fluorescence increase percentage versus log[dose]
Description for Caco-2 cells: Caco-2 cells were seeded into 96-well microplate in 100 μL of complete medium at a density 2×10^4 cells/well. The plate was incubated O/N in a humidified atmosphere (5% CO2 at 37°C). The medium was removed and 100 μL of complete medium were added, in the presence or absence of different concentrations of test compounds. The plate was again incubated for 2 h in a humidified atmosphere. Then, 50 μl of mammalian cell lysis solution were added to all wells and the plate stirred for 5 min in an orbital shaker. In all wells, 50 μl of substrate solution were added, and the plate stirred for 5 min as above reported. The plate was dark adapted for 10 min and the luminescence measured in Victor3 (PerkinElmer) [26].
Description for MRP1: as §4

In general, EC50 refers to the midpoint of the concentration-response curve. In the case of `CO[C@@]12[C@H](COC(N)=O)C3=C(C(=O)C(C)=C(N)C3=O)N1C[C@@H]1N[C@@H]12` [Mitomycin C], the EC50 in the data set with 5637 (5637, compound alone) was found to be 0.93 ± 0.04 µM; in the data set with UMUC3 (UMUC3, compound alone, 48 h), 1.69 ± 0.09 µM; in the data set on TCC sup (TCC sup, compound alone), 0.83 ± 0.07 µM; in the data set on J82 (J82, compound alone, 48 h) it was 0.64 ± 0.09 µM; in the data set with UMUC-3- CX (UMUC3, UMUC-3-CX, compound alone, 48 h) it was 13 ± 1 µM; with 5637 si-CX (5637 si-CX, compound alone), 0.62 ± 0.05 µM. In addition, in the data set on UMUC-3- CX (UMUC-3-CX, celecoxib 1 μM, 5 μM and 10 μM, 48 h, listed as MMC), the “Fold improvement of MMC anti-proliferative activity by co-administration of celecoxib compared to MMC alone” value was 2–3 fold. For the same compound, the “Anti-proliferative effect of MMC alone, fold greater in UMUC-3 than in UMUC-3-CX” value with UMUC-3- CX (UMUC-3 versus UMUC-3-CX, 48 h) was found to be 8 fold.
By Papp A→B is commonly meant how fast a substance crosses the layer from the apical side. For orientation: Papp B→A means how fast a substance crosses the layer from the basolateral side. Turning to `Cc1ccc(-c2cc(C(F)(F)F)nn2-c2ccc(S(N)(=O)=O)cc2)cc1` [Celecoxib, celecoxib], the EC50 was above 50 µM in the data set with 5637; 14.2 ± 0.7 µM with UMUC3 (UMUC3, 48 h); 15.7 ± 0.5 µM in the data set with TCC sup (TCC-SUP); 11.6 ± 0.31 µM in the data set on J82 (J82, 48 h); 24.1 ± 1.2 µM at BCRP; 16.3 ± 0.8 µM with UMUC-3- CX (UMUC3, 48 h). In addition, the EC50 in the data set with 5637 si-CX is above 50 µM; at MRP1, 10.1 ± 0.5 µM. Besides, the “Effect on MMC intracellular accumulation” value is “increase of intracellular MMC concentration” with UMUC-3-CX cells and “not seen” in the data set with UMUC-3 cells. In the data set with Caco-2 cells, the ATP cell depletion entry is “decreased ATP levels in a time- and dose-dependent fashion”. Also, at P-gp (from drug transport, substrate transport inhibition and ATP cell depletion assays combined), the “Classification of P-gp interaction (Polli's classification)” value is given as “P-gp unambiguous substrate”. Further, the Papp A→B at 120 min, 100 µM on P-gp (human, Caco-2 monolayer, apical-basolateral flux, 120 min) is 13.7 ×10⁻⁶ cm/s. For the same compound, the basolateral-to-apical permeability (Papp B→A) at 120 min, 100 µM on P-gp (human, Caco-2 monolayer, basolateral-apical flux, 120 min) came to 103 ×10⁻⁶ cm/s.
